What was measured:
[1] = target: T1, Bifunctional purine biosynthesis protein ATIC (Mus musculus, UniProt Q9CWJ9); assay: Triglutamyl homologue inhibition activity against AICAR formyltransferase was determined against L cell; format: cell-based
T1 sequence (Q9CWJ9 whole entry): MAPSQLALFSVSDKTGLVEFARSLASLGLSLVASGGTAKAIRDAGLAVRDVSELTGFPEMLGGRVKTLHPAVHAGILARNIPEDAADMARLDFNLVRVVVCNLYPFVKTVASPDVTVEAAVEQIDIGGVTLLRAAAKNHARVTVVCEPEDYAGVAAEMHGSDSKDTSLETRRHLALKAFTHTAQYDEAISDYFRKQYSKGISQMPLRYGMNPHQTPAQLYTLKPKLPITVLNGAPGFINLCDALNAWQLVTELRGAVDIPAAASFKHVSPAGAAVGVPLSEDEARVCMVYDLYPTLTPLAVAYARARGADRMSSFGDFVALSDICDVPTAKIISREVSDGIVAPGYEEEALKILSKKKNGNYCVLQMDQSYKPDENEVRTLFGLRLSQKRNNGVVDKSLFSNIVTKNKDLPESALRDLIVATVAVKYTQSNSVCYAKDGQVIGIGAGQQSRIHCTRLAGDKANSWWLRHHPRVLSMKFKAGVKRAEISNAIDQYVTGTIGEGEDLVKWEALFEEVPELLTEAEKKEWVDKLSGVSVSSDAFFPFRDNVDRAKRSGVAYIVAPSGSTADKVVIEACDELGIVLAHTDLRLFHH

[2] = target: T1, Bifunctional purine biosynthesis protein ATIC; assay: Inhibition activity against AICAR formyltransferase determined against L cell; format: cell-based
[3] = target: T1, Bifunctional purine biosynthesis protein ATIC; assay: Hexaglutamyl homologue inhibition activity against the AICAR formyltransferase was determined against L cell; format: cell-based
[4] = target: T1, Bifunctional purine biosynthesis protein ATIC; assay: Diglutamyl homologue inhibition activity against the AICAR formyltransferase was determined against L cell; format: cell-based
[5] = target: T2, Bifunctional purine biosynthesis protein ATIC (Homo sapiens, UniProt P31939); assay: Hexaglutamyl homologue inhibition activity against the AICAR formyltransferase was determined against MOLT-4; format: cell-based
[6] = target: T2, Bifunctional purine biosynthesis protein ATIC; assay: Inhibition activity against AICAR formyltransferase determined against MOLT-4; format: cell-based
[7] = test system: Detroit 98; assay: Evaluated in vitro for ability to inhibit the Detroit 98 cell lines; format: functional, cell-based; details: Homo sapiens
[8] = test system: L cells; assay: Evaluated in vitro for ability to inhibit the L cell lines.; format: functional, cell-based; details: Mus musculus, L929
[9] = organism: Mus musculus; assay: Evaluated for inhibitory activity on 10-formyltetrahydrofolate synthetase(L cell) at folate substrate concentration of 100 uM
[10] = target: T3, Serine hydroxymethyltransferase, cytosolic (Mus musculus) (UniProt P50431); assay: Evaluated for inhibitory activity on Serine hydroxymethyl transferase (Lcell) at folate substrate concentration of 160 uM
T3 sequence (whole entry): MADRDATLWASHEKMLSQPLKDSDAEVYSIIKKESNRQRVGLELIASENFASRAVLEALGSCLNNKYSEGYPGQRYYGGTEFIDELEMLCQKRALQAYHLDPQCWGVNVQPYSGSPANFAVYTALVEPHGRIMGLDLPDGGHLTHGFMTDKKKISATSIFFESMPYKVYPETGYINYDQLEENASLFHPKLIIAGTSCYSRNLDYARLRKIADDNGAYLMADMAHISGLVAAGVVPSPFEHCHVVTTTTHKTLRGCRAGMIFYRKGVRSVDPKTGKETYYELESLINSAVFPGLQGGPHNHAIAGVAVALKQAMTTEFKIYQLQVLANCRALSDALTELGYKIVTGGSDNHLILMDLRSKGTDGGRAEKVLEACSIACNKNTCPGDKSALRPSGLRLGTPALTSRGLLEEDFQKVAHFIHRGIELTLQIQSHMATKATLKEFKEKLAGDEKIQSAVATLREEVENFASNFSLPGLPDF

[11] = target: T4, C-1-tetrahydrofolate synthase, cytoplasmic (Mus musculus) (UniProt Q922D8); assay: Evaluated for inhibitory activity on 5,10-Methylene Tetrahydrofolate Cyclohydrolase(L cell) at folate substrate concentration of 100 uM
T4 sequence (whole entry): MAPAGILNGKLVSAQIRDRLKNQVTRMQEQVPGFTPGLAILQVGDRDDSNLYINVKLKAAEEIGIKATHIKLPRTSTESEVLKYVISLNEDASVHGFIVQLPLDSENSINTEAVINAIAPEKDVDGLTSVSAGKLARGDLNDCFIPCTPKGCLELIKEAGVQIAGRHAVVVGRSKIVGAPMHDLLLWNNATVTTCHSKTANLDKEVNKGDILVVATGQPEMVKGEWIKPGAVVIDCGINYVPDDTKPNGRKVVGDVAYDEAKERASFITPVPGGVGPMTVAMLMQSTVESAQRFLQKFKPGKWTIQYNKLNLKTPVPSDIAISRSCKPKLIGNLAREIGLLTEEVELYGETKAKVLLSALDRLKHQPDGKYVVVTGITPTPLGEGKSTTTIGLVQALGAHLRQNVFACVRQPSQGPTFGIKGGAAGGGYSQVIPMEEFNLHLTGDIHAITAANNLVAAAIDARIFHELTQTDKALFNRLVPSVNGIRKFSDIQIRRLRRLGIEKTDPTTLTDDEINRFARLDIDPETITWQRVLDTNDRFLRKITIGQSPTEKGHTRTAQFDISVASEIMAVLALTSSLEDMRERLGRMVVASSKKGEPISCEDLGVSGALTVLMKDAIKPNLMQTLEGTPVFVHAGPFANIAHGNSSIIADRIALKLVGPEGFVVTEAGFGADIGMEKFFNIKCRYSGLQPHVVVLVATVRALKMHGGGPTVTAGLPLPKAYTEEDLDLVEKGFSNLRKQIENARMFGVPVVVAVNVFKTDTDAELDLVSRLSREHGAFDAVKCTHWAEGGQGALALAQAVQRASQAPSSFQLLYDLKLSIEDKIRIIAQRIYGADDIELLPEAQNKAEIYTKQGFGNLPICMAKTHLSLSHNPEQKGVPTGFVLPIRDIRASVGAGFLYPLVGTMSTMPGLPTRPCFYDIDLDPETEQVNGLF

[12] = target: Methionine synthase (Mus musculus) (UniProt A6H5Y3); assay: Evaluated for inhibitory activity on Methionine synthase(L cell) at folate substrate concentration of 100 uM
[13] = target: T5, Dihydrofolate reductase (Rattus norvegicus) (UniProt Q920D2); assay: Evaluated for inhibitory activity on Dihydrofolate reductase(rat liver) at folate substrate concentration of 45 uM
T5 sequence (whole entry): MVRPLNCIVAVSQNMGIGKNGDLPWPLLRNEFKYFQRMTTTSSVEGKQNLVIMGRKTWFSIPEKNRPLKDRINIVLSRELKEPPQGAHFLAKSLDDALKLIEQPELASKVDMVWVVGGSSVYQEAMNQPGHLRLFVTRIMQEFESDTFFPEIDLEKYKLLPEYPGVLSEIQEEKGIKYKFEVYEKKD

[14] = target: T4, C-1-tetrahydrofolate synthase, cytoplasmic (Mus musculus); assay: Evaluated for inhibitory activity on 5,10-Methenyl Tetrahydrofolate Cyclohydrolase(L cell) at folate substrate concentration of 100 uM
[15] = test system: A-427; assay: Antitumor activity on A-427 lung carcinoma cell lines; format: functional, cell-based; details: Homo sapiens
[16] = Diglutamyl homologue inhibition activity against the Glycinamide ribonucleotide transformylase (GAR-TFase)was determined against L cell; format: cell-based, Mus musculus
[17] = test system: L cells; assay: Evaluated for reversal of L cell inhibition, where reversal of toxicity was evaluated by the addition of Thymidine (20 uM); format: functional, Mus musculus, L929
[18] = test system: P388; assay: Effect on P388 tumor cell growth in mice. The percentage of increased life span was determined administered 7.5 mg/kg schedule - b.i.d., days 1-3; format: functional; details: Mus musculus, P388, intraduodenal
[19] = test system: MCF7; assay: Antitumor activity on MCF-7 breast adenocarcinoma cell lines; format: functional, cell-based; details: Homo sapiens
[20] = test system: Thymidylate synthase (Bos taurus); assay: Evaluated for inhibitory activity on Thymidylate synthase(calf thymus) at folate substrate concentration of 200 uM
[21] = target: T4, C-1-tetrahydrofolate synthase, cytoplasmic (Mus musculus); assay: Evaluated for inhibitory activity on 5,10-methylenetetrahydrofolate dehydrogenase(L cell) at folate substrate concentration of 100 uM
[22] = test system: P388; assay: Effect on P388 tumor cell growth in mice. The percentage of increased life span was determined administered 75 mg/kg schedule - QD,days1,5,9; format: functional; details: Mus musculus
[23] = test system: CCRF-CEM; assay: Antitumor activity on CCRF-CEM T-cell acute lymphoblastic leukemia cell lines; format: functional, cell-based; details: Homo sapiens
[24] = test system: L cells; assay: Evaluated for reversal of L cell inhibition, where reversal of toxicity was evaluated by the addition of Thymidine Hypoxanthine; format: functional, Mus musculus, L929
[25] = Inhibition activity against Glycinamide ribotide formyltransferase against L cell; format: cell-based
[26] = test system: SW480; assay: Antitumor activity on SW 480 colon adenocarcinoma cell lines; format: functional, cell-based; details: Homo sapiens
[27] = Hexaglutamyl homologue inhibition activity against the Glycinamide ribonucleotide transformylase (GAR-TFase) was determined against L cell; format: cell-based, Mus musculus
[28] = test system: WiDr; assay: Antitumor activity on WiDr colon adenocarcinoma cell lines; format: functional, cell-based; details: Homo sapiens
[29] = Inhibition activity against Glycinamide ribonucleotide transformylase (GAR-TFase) against L cell; format: cell-based, Mus musculus
[30] = test system: MOLT-4; assay: Antitumor activity on MOLT-4 T-cell acute lymphoblastic leukemia cell lines; format: functional, cell-based; details: Homo sapiens
[31] = Hexaglutamyl homologue inhibition activity against the Glycinamide ribonucleotide transformylase (GAR-TFase) was determined against hog liver; format: tissue-based, Sus scrofa
[32] = organism: Sus scrofa; assay: Apparent Km in uM for its activation for Hog Liver Folyl-polyglutamate synthase was determined
[33] = test system: P388; assay: Effect on P388 tumor cell growth in mice. The percentage of increased life span was determined administered 10 mg/kg schedule - t.i.d., days 1-4; format: functional; details: Mus musculus, P388, intraduodenal
[34] = Ratio of app Km to ral Vmax
[35] = Triglutamyl homologue inhibition activity against Glycinamide ribonucleotide transformylase (GAR-TFase)was determined against L cell; format: cell-based, Mus musculus
[36] = test system: L cells; assay: Evaluated for reversal of L cell inhibition, where reversal of toxicity was evaluated by the addition of Hypoxanthine (37 uM); format: functional, Mus musculus, L929
[37] = test system: L cells; assay: Evaluated for reversal of L cell inhibition, where reversal of toxicity was evaluated by the addition of Leucovorin (0.2 uM); format: functional, Mus musculus, L929
[38] = test system: P388; assay: Effect on P388 tumor cell growth in mice. The percentage of increased life span was determined administered 5 mg/kg schedule - t.i.d., days 1-4; format: functional; details: Mus musculus, P388, intraduodenal
[39] = organism: Sus scrofa; assay: Relative Vmax for its activation for Hog Liver Folyl-polyglutamate synthase was determined
[40] = test system: L cells; assay: Evaluated for reversal of L cell inhibition, where reversal of toxicity was evaluated by the addition of Thymidine + Hypoxanthine; format: functional, Mus musculus, L929

Sequence of Methionine synthase (Mus musculus) (A6H5Y3 whole entry): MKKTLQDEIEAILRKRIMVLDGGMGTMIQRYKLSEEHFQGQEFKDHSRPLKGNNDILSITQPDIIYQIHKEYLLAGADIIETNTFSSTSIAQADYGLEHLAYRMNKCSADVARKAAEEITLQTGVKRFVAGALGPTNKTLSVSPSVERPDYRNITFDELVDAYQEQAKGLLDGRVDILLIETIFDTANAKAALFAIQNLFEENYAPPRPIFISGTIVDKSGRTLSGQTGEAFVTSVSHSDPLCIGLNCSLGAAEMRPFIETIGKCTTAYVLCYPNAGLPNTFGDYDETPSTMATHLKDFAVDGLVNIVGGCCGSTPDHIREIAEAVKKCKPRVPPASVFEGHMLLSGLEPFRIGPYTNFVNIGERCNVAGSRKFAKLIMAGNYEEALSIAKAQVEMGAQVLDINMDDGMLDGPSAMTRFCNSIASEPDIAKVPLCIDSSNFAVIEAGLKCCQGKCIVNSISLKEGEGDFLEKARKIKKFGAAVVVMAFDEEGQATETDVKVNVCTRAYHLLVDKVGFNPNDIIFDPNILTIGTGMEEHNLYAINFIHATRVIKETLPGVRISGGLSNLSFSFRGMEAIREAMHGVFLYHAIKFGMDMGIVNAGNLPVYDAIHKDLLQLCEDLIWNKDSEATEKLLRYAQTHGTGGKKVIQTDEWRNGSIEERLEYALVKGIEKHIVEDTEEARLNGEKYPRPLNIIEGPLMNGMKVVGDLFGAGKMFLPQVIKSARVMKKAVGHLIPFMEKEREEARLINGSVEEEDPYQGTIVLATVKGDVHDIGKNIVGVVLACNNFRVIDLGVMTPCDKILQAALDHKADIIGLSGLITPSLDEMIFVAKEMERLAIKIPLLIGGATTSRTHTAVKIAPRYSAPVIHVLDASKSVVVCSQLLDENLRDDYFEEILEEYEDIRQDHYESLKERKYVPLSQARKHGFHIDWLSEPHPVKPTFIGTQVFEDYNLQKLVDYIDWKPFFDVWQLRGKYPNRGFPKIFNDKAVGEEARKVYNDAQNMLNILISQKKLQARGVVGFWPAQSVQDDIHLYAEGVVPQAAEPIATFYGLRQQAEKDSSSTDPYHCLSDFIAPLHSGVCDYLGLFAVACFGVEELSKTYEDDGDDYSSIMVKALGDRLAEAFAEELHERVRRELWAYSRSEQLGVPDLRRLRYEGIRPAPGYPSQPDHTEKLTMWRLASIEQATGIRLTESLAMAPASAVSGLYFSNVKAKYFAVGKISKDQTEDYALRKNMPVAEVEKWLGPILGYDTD
T2 sequence (P31939 whole entry): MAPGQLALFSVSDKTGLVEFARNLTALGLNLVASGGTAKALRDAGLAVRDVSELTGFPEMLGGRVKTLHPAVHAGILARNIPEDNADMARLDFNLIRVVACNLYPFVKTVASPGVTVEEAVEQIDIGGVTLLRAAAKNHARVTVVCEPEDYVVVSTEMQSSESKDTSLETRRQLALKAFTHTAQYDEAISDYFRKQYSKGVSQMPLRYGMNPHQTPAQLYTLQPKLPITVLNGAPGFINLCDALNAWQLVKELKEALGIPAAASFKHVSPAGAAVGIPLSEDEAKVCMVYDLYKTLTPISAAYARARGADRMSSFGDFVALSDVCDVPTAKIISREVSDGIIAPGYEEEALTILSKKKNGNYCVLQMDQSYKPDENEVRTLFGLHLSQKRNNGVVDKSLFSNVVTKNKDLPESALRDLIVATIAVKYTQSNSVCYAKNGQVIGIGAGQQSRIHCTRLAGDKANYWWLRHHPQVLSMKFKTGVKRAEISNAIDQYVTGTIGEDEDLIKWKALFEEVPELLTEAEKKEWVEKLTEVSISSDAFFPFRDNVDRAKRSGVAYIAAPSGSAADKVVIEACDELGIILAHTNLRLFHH

SMILES	IC50 [7] [µM]	IC50 [8] [µM]	inhibition [9] [%]	inhibition [10] [%]	inhibition [12] [%]	inhibition [13] [%]	inhibition [14] [%]	Inhibition [17] [%]	Km [32] [µM]	Ratio [34]	Inhibition [36] [%]	Inhibition [37] [%]	Relative Vmax [39] [%]	further results
Nc1nc(N)c(CCCNc2ccc(C(=O)N[C@@H](CCC(=O)O)C(=O)O)cc2)c(=O)[nH]1														IC50 [1]: 1.9 µM; IC50 [2]: 200 µM; IC50 [3]: 0.7 µM; IC50 [4]: 9.4 µM; IC50 [5]: 0.7 µM; IC50 [6]: 94 µM
Nc1nc(N)c(CCCNc2ccc(C(=O)NCC(=O)O)cc2)c(O)n1	> 100	> 100												
Nc1nc(N)c(CCCN(C=O)c2ccc(C(=O)NC(CCC(=O)O)C(=O)O)cc2)c(O)n1 (stereo not drawn)	0.21		0	13	0	50	34							inhibition [11]: 0%
Nc1nc(N)c(CCCNc2ccc(C(=O)N[C@@H](CCC(=O)O)C(=O)O)cc2)c(O)n1	0.11	0.088	0	7	0	0	5	59	6.7	14.9	0	6	100	IC50 [15]: 0.043 µM; IC50 [16]: 0.4 µM; ILS at 7.5 mg/kg [18]: 40%; IC50 [19]: 0.037 µM; inhibition [20]: 0%; inhibition [21]: 0%; ILS at 75 mg/kg [22]: 0%; IC50 [23]: 0.047 µM; Inhibition [24]: 0%; IC50 [25]: 2.6 µM; IC50 [26]: 0.05 µM; IC50 [27]: 0.08 µM; IC50 [28]: 0.045 µM; IC50 [29]: 3 µM; IC50 [30]: 0.058 µM; IC50 [31]: 0.26 µM; ILS at 10 mg/kg [33]: 80%; IC50 [35]: 0.34 µM; ILS at 5 mg/kg [38]: 22%
Nc1nc(N)c2nc(CNc3ccc(C(=O)N[C@@H](CCC(=O)O)C(=O)O)cc3)cnc2n1 [AMINOPTERIN]	0.002	0.0023						68	24.4	5.9	79	6	144	Inhibition [40]: 0%
CN(CCCc1c(N)nc(N)nc1O)c1ccc(C(=O)NC(CCC(=O)O)C(=O)O)cc1 (stereo not drawn)	2	0.28												

Source: ChEMBL document CHEMBL1125043, “Synthesis and biological activity of an acyclic analogue of 5,6,7,8-tetrahydrofolic acid, N-[4-[[3-(2,4-diamino-1,6-dihydro-6-oxo-5- pyrimidinyl)propyl]amino]-benzoyl]-L-glutamic acid” (J Med Chem, 1990)
